System: S. neurona merozoites
Experiment: Ionophore A23187-stimulated merozoite release from infected host cell monolayers
Format: cell-based, Sarcocystis neurona
Description: A stock solution of calcium ionophore A23187 (Sigma) was prepared in dimethylsulfoxide to a final concentration of 1 mg/ml and stored at −20° C. Infected cell monolayers (see example 1) at 12 days post infection were washed three times with PBS or Hanks Balanced Salts Solution (HBSS), and 10 ml of A23187 (1 μM in HBSS) was added to the washed monolayer and incubated at 37° C. for 40 min. in 5% CO2, 95% air. Free merozoites were collected by centrifugation and washed in PBS as above. Parasites released by this method were examined by density gradient centrifugation, but further separation from host cell debris by density gradient centrifugation was not routinely necessary. For further purification, parasites recovered from the supernatant were isolated from host cell debris on a discontinuous buoyant density gradient using Iodixanol (Optiprep) in PBS or HBSS. Merozoites were suspended gently in 1.0 ml PBS and were layered onto a preformed, three step discontinuous gradient with layers of 1.03, 1.04 and 1.06 g/ml in a 15 ml round bottom centrifuge tube. The gradient was centrifuged at 1000×g for 25 min at 20° C. with the brake off. Fractions containing particulate material at each interface were collected and examined microscopically. The fractions(s) containing significant amounts of merozoites were collected for use.
Lung cells at 60% confluence were seeded at a density of 0.1 merozoites per host cell and parasite growth was monitored microscopically for 30 days. Free parasites were not observed until 10 days post infection. During most of the period of observation, the percentage of extracellular parasites was less than 10%. On day 28, the largest number of free parasites was counted; but the next day the numbers of extracellular parasites was back to less than 10%. Duplicate 75 cm flasks were grown for 12 days in HL cells and treated with HBSS or HBSS with 1 μM A23187. Free parasites were collected by centrifugation and counted with a hemocytometer.

## CNc1ccc2oc(C[C@H]3O[C@@]4(CC[C@H]3C)O[C@H]([C@H](C)C(=O)c3ccc[nH]3)[C@H](C)C[C@H]4C)nc2c1C(=O)O [A23187]
Infected GT, HFF, CHO, BHK and primary EM cells, same conditions
  Merozoite release in response to ionophore treatment: refractory
Infected host cells incubated 40 min in 1 μM A23187
  Enhancement of collection of parasites free in the culture medium: 90 fold
Parasitized BM, BM0617, HL, BT and ED cells
  Merozoite release in response to ionophore treatment: released merozoites

Reference: patent US6808714B2, “Detection of sarcocystis neurona” (priority 2000, dated 2004)
